From patent US6509369B2, “Anti-inflammatory compounds” (Ortho-McNeil Pharmaceutical, Inc., priority 1997, dated 2003)

Legend:
[1] = target: T1, human glucocorticoid receptor (hGR) (Homo sapiens, UniProt P04150); experiment: human glucocorticoid receptor binding assay (displacement of 3(H) Triamcinolone acetonide); conditions: for hGR, value given as %: concentration not given
T1 construct: made in house; host or cells: Sf21 insect cells infected with baculovirus hGR, OR IM9 lymphoblast cell line (endogenous hGR)
T1 sequence (P04150 1-777): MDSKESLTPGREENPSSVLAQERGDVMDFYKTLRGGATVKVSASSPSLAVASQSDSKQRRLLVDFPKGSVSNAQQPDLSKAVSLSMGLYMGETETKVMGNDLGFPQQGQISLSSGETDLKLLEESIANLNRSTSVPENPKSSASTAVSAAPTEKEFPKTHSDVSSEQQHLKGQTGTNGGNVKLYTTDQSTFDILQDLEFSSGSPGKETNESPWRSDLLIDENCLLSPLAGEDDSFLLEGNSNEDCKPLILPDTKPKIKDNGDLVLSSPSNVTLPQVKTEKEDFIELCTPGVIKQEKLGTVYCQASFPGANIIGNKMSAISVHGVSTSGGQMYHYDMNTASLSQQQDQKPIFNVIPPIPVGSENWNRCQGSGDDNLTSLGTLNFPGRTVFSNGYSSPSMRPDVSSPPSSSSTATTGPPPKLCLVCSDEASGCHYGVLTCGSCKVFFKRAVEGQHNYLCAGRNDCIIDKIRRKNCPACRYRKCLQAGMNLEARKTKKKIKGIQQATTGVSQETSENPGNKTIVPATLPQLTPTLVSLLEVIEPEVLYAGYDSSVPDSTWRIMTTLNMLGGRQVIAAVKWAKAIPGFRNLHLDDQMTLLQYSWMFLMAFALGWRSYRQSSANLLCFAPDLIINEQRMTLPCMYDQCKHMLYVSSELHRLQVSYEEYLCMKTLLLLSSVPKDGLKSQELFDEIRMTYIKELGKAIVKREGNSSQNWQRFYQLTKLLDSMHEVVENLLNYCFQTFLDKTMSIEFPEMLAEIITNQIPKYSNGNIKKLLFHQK
Procedure: A human glucocorticoid receptor binding assay was carried out to determine the extent to which the compounds of this invention have the ability to bind to human glucocorticoid receptors. This binding ability may be indicative of the antiinflammatory activity of the compound. The test was carried out as follows.
Human glucocorticoid receptors were prepared from either insect cells (Sf21) infected with baculovirus hGR or from a lymphoblast cell line which expresses high levels of endogenous hGR (IM9). The receptor binding reactions, with or without test compounds, were set up in 96-well microtiter plates which were previously siliconized with SIGMACOTE™, a chlorinated organopolysiloxane in heptane. The binding components, 3(H) Triamcinolone acetonide (TAA), glycerol/molybdate-containing buffer and unlabeled compounds were added to the wells using a combination of BIOMEK laboratory automation system and repeat pipettes. After four hours of incubation, the samples were precipitated with polyethylene glycol and filtered through Whatman GF/F paper using a TOMTEK cell harvester. The filter mate with 96 samples were bound to a solid-phase scintillant and directly counted in a BETAPLATE counter. […] The activity of test compounds to displace 3(H) TAA binding to hGR is also expressed as percent inhibition at 1 μM.

[2] = test system: oxazolone-induced ear swelling (MOCH) in albino male CD-1 mice; experiment: mouse oxazolone-induced contact hypersensitization (MOCH) ear swelling; format: in vivo; parameters: % Inhibition MOCH: concentration or dose not given beside the values; conditions: mouse, in vivo
Procedure: Several triphenylpropanamide compounds of this invention, having varying affinities for the human glucocorticoid receptor, were tested for topical antiinflammatory activity in mouse ear inflammation models. […] Compounds having receptor affinities closer to hydrocortisone were as nearly active as hydrocortisone in suppressing mouse oxazolone-induced contact hypersensitization (MOCH) and phorbol ester-induced ear edema. The in vivo studies of this example were conducted as follows.
In determining the MOCH using the compounds of this invention, albino male CD-1 mice, 7-9 weeks old were induced on the shaved abdomen with 50 μl of 3% oxazolone in acetone/corn oil (Day 0). On Day 5, a 20 μl volume of 2% oxazolone in acetone was applied to the dorsal left ear of the mouse . Compounds (made in ethanol/propylene glycol, 70:30) were applied to the left ear in 20 μl volume, one hour after oxazolone challenge. The right ear was not treated. The mice were sacrificed by carbon dioxide inhalation 24 hours after oxazolone challenge, the left and right ears were removed and a 7 mm biopsy was removed from each ear and weighed. The difference in biopsy weights between the right and left ears was calculated. Antiinflammatory effects of compounds were evident as an inhibition of the increase in ear weight.

SMILES	IC50 [1]	also measured
O=C(Cc1ccc(Cl)c(Cl)c1)NCC(c1ccccc1)C(c1ccccc1)c1ccccc1 (stereo not shown) [Compound 9]	1480 nM	–
O=C(NCC(c1ccc2c(c1)OCO2)C(c1ccccc1)c1ccccc1)c1ccccc1Cl (stereo not shown) [Compound 129]	–	% Inhibition MOCH [2]: 41%
Cc1ccc(C(=O)NCC(c2ccc3c(c2)OCO3)C(c2ccccc2)c2ccccc2)cc1[N+](=O)[O-] (stereo not shown) [Compound 122]	–	% Inhibition MOCH [2]: 33%
O=C(Cc1ccc(Cl)cc1Cl)NCC(c1ccc2c(c1)OCO2)C(c1ccccc1)c1ccccc1 (stereo not shown) [Compound 112]	–	% Inhibition MOCH [2]: 36%
O=C(NCC(c1ccccc1)C(c1ccccc1)c1ccccc1)Oc1ccc(F)cc1 (stereo not shown) [Compound 58]	240 nM	–
O=C(NCC(c1ccc2c(c1)OCO2)C(c1ccccc1)c1ccccc1)c1ccc(Cl)cc1 (stereo not shown) [Compound 130]	–	% Inhibition MOCH [2]: 37%
O=C(NCC(c1ccc(C(F)(F)F)cc1)C(c1ccccc1)c1ccccc1)c1ccccc1Cl (stereo not shown) [Compound 137]	–	% Inhibition MOCH [2]: 45%
O=C(CCc1ccccc1Cl)NCC(c1ccccc1)C(c1ccccc1)c1ccccc1 (stereo not shown) [Compound 22]	103 nM	–
CSc1ccc(CC(=O)NCC(c2ccc(C(F)(F)F)cc2)C(c2ccccc2)c2ccccc2)cc1 (stereo not shown) [Compound 143]	–	% Inhibition MOCH [2]: 19%
O=C(Cc1cccc(C(F)(F)F)c1)NCC(c1ccc2c(c1)OCO2)C(c1ccccc1)c1ccccc1 (stereo not shown) [Compound 103]	–	% Inhibition MOCH [2]: 37%
COc1ccccc1CCC(=O)NCC(c1ccccc1)C1c2ccccc2-c2ccccc21 (stereo not shown) [Compound 70]	–	hGR, value given as % [1]: 53%
Cc1c(CC(=O)NCC(c2ccc3c(c2)OCO3)C(c2ccccc2)c2ccccc2)sc2ccc(Cl)cc12 (stereo not shown) [Compound 100]	–	% Inhibition MOCH [2]: 18%
O=C(Cc1ccc(-c2ccccc2)cc1)NCC(c1ccc2c(c1)OCO2)C(c1ccccc1)c1ccccc1 (stereo not shown) [Compound 134]	–	% Inhibition MOCH [2]: 29%
O=C(Cc1cccs1)NCC(c1ccc2c(c1)OCO2)C(c1ccccc1)c1ccccc1 (stereo not shown) [Compound 99]	–	% Inhibition MOCH [2]: 35%
COc1ccccc1NC(=O)NCC(c1ccccc1)C(c1ccccc1)c1ccccc1 (stereo not shown) [Compound 51]	–	hGR, value given as % [1]: 32%
O=C(Cc1ccccn1)NCC(c1ccc(C(F)(F)F)cc1)C(c1ccccc1)c1ccccc1 (stereo not shown) [Compound 142]	–	% Inhibition MOCH [2]: 39%
O=C(Cc1cccs1)NCC(c1ccc(I)cc1)C(c1ccccc1)c1ccccc1 (stereo not shown) [Compound 33]	8.6 nM	–
O=C(Cc1cccc(F)c1)NCC(c1ccc2c(c1)OCO2)C(c1ccccc1)c1ccccc1 (stereo not shown) [Compound 110]	–	% Inhibition MOCH [2]: 20%
COc1ccccc1CC(=O)NCC(c1ccc(C(F)(F)F)cc1)C(c1ccccc1)c1ccccc1 (stereo not shown) [Compound 148]	–	% Inhibition MOCH [2]: 42%

SMILES	IC50 [1]	also measured
Cc1ccc(S(=O)(=O)NCC(c2ccccc2)C(c2ccccc2)c2ccccc2)cc1 (stereo not shown) [Compound 26]	175 nM	–
COc1cc(CC(=O)NCC(c2ccc(C(F)(F)F)cc2)C(c2ccccc2)c2ccccc2)cc(OC)c1 (stereo not shown) [Compound 149]	–	% Inhibition MOCH [2]: 42%
Cc1cccc(CC(=O)NCC(c2ccc(C(F)(F)F)cc2)C(c2ccccc2)c2ccccc2)c1 (stereo not shown) [Compound 140]	–	% Inhibition MOCH [2]: 57%
O=C(Cc1ccc(Cl)c(Cl)c1)NCC(c1ccc2c(c1)OCO2)C(c1ccccc1)c1ccccc1 (stereo not shown) [Compound 113]	–	% Inhibition MOCH [2]: 31%
O=S(=O)(Cc1ccccc1)NCC(c1ccccc1)C(c1ccccc1)c1ccccc1 (stereo not shown) [Compound 25]	210 nM	–
O=C(Cc1ccsc1)NCC(c1ccc(Cl)cc1)C(c1ccccc1)c1ccccc1 (stereo not shown) [Compound 35]	54 nM	–
O=C(NCC(c1ccccc1)C(c1ccccc1)c1ccccc1)Oc1ccc2ccccc2c1 (stereo not shown) [Compound 59]	155 nM	–
O=C(NCC(c1ccccc1)C(c1ccccc1)c1ccccc1)c1cc2ccccc2s1 (stereo not shown) [Compound 43]	495 nM	–
Cc1ccc(C(=O)NCC(c2ccccc2)C(c2ccccc2)c2ccccc2)s1 (stereo not shown) [Compound 30]	50 nM	–
O=C(C=Cc1ccsc1)NCC(c1ccccc1)C(c1ccccc1)c1ccccc1 (stereo not shown) [Compound 39]	727 nM	–
Cc1ccc(S(=O)(=O)CC(=O)NCC(c2ccccc2)C(c2ccccc2)c2ccccc2)cc1 (stereo not shown) [Compound 28]	57 nM	–
O=C(C=Cc1cccs1)NCC(c1ccccc1)C(c1ccccc1)c1ccccc1 (stereo not shown) [Compound 38]	189 nM	–
O=C(NCC(c1ccccc1)C(c1ccccc1)c1ccccc1)C(c1ccccc1)c1ccccc1 (stereo not shown) [Compound 13]	780 nM	–
COc1ccccc1CC(=O)NCC(c1ccccc1)C1c2ccccc2-c2ccccc21 (stereo not shown) [Compound 67]	–	hGR, value given as % [1]: 23%
O=C(NCC(c1ccccc1)C(c1ccccc1)c1ccccc1)Oc1ccccc1 (stereo not shown) [Compound 56]	310 nM	–
O=S(=O)(NCC(c1ccc(Cl)cc1)C(c1ccccc1)c1ccccc1)c1cccs1 (stereo not shown) [Compound 41]	491 nM	–
COc1ccc(CC(=O)NCC(c2ccccc2)C(c2ccccc2)c2ccccc2)cc1 (stereo not shown) [Compound 6]	910 nM	–
O=C(CS(=O)(=O)c1ccccc1)NCC(c1ccccc1)C(c1ccccc1)c1ccccc1 (stereo not shown) [Compound 27]	67 nM	–
O=C(Cc1cccs1)NCC(c1ccccc1)C(c1ccc(F)cc1)c1ccc(F)cc1 (stereo not shown) [Compound 31]	8 nM	–

Second part, led by results:

IC50 [1]	SMILES	also measured
446 nM	CCCC(=O)NCC(c1ccccc1)C(c1ccccc1)c1ccccc1 (stereo not shown) [Compound 60]	–
219 nM	O=C(NCc1ccccc1)NCC(c1ccccc1)C(c1ccccc1)c1ccccc1 (stereo not shown) [Compound 54]	–
293 nM	O=C(NCC(c1ccccc1)C(c1ccccc1)c1ccccc1)Nc1ccccc1F (stereo not shown) [Compound 53]	–
937 nM	CCOC(=O)CC(=O)NCC(c1ccccc1)C(c1ccccc1)c1ccccc1 (stereo not shown) [Compound 65]	–
584 nM	CC(C)C(=O)NCC(c1ccccc1)C(c1ccccc1)c1ccccc1 (stereo not shown) [Compound 61]	–
121 nM	CCCCC(=O)NCC(c1ccccc1)C(c1ccccc1)c1ccccc1 (stereo not shown) [Compound 62]	–
363 nM	O=C(Cc1cccs1)NCC(c1ccccc1)C1c2ccccc2CCc2ccccc21 (stereo not shown) [Compound 75]	–
770 nM	O=C(Cc1ccccc1)NCC(c1ccccc1)C1c2ccccc2CCc2ccccc21 (stereo not shown) [Compound 73]	–
296 nM	CC(C)(C)C(=O)NCC(c1ccccc1)C(c1ccccc1)c1ccccc1 (stereo not shown) [Compound 64]	–
421 nM	Cc1ccc(C(=O)NCC2(c3ccccc3)CC2(c2ccccc2)c2ccccc2)s1 (stereo not shown) [Compound 91]	–
882 nM	Cc1ccc(C(=O)NCC(c2ccccc2)C2c3ccccc3CCc3ccccc32)s1 (stereo not shown) [Compound 77]	–
612 nM	O=C(NCC1(c2ccccc2)CC1(c1ccccc1)c1ccccc1)c1cccs1 (stereo not shown) [Compound 90]	–
709 nM	COc1ccccc1CCC(=O)NCC1(c2ccccc2)CC1(c1ccccc1)c1ccccc1 (stereo not shown) [Compound 81]	–
388 nM	COc1ccccc1CCC(=O)NCC(c1ccccc1)C1c2ccccc2CCc2ccccc21 (stereo not shown) [Compound 74]	–
273 nM	O=C(NCC(c1ccccc1)C(c1ccccc1)c1ccccc1)Nc1ccccc1Cl (stereo not shown) [Compound 52]	–
425 nM	O=C(Cc1cccs1)NCC1(c2ccccc2)CC1(c1ccccc1)c1ccccc1 (stereo not shown) [Compound 88]	–
316 nM	CC(C)CC(=O)NCC(c1ccccc1)C(c1ccccc1)c1ccccc1 (stereo not shown) [Compound 63]	–
133 nM	CN(CC(c1ccccc1)C(c1ccccc1)c1ccccc1)C(=O)Cc1cccs1 (stereo not shown) [Compound 44]	–
121 nM	O=C(NCc1ccc(Cl)cc1Cl)NCC(c1ccccc1)C(c1ccccc1)c1ccccc1 (stereo not shown) [Compound 55]	–
571 nM	O=C(Cc1ccsc1)NCC(c1ccccc1)C1c2ccccc2CCc2ccccc21 (stereo not shown) [Compound 76]	–
